Experiment: xn = mol fraction of the nth substance listed
Conditions: 101.3 kPa

CS(C)=O + CCOCC[n+]1ccn(CCC#N)c1.O=S(=O)([N-]S(=O)(=O)C(F)(F)F)C(F)(F)F
x2 = 0
Conditions | electrical conductivity [S/m] | viscosity [mPa·s]
293.15 K | 0.0006 | 2.48
303.15 K | 0.0009 | 2.025
313.15 K | 0.0012 | 1.619
323.15 K | 0.0015 | 1.433

CS(C)=O + COCCOCCn1cc[n+](CCC#N)c1.O=S(=O)([N-]S(=O)(=O)C(F)(F)F)C(F)(F)F
x2 = 0
Conditions | electrical conductivity [S/m] | viscosity [mPa·s]
293.15 K | 0.0006 | 2.479
303.15 K | 0.0009 | 2.025
313.15 K | 0.0012 | 1.619
323.15 K | 0.0015 | 1.433

CCOCC[n+]1ccn(CCC#N)c1.O=S(=O)([N-]S(=O)(=O)C(F)(F)F)C(F)(F)F + CS(C)=O
Conditions | electrical conductivity, 293.15 K [S/m] | electrical conductivity, 303.15 K [S/m] | electrical conductivity, 313.15 K [S/m] | electrical conductivity, 323.15 K [S/m] | viscosity, 293.15 K [mPa·s] | viscosity, 303.15 K [mPa·s] | viscosity, 313.15 K [mPa·s] | viscosity, 323.15 K [mPa·s]
x1 = 0.0989 | 0.0011 | 0.0013 | 0.0016 | – | 8.21 | 5.53 | 4.312 | –
x1 = 0.1981 | 0.004 | 0.0048 | 0.0061 | – | 10.18 | 7.07 | 5.24 | –
x1 = 0.2776 | 0.0096 | 0.0117 | 0.0152 | 0.0204 | 16.76 | 11.64 | 8.48 | 6.42
x1 = 0.3971 | 0.0179 | 0.0218 | 0.0282 | – | 25.7 | 17 | 12.01 | –
x1 = 0.5029 | 0.0284 | 0.0351 | 0.0457 | – | 40.9 | 28 | 18.99 | –
x1 = 0.597 | – | 0.0477 | 0.063 | 0.0866 | – | 38.6 | 26.33 | 18.01
x1 = 0.721 | 0.0472 | – | 0.0763 | – | 72.2 | – | 28.66 | –
x1 = 0.798 | – | 0.0985 | 0.13 | 0.188 | – | 57.8 | 36.8 | 28.6
x1 = 0.89 | – | 0.0843 | 0.119 | 0.165 | – | 124.2 | 78.2 | 56.6
x1 = 1 | 0.057 | 0.0705 | 0.0957 | 0.14 | 401 | 235.6 | 146.2 | 105

COCCOCCn1cc[n+](CCC#N)c1.O=S(=O)([N-]S(=O)(=O)C(F)(F)F)C(F)(F)F + CS(C)=O
Conditions | electrical conductivity, 293.15 K [S/m] | electrical conductivity, 303.15 K [S/m] | electrical conductivity, 313.15 K [S/m] | electrical conductivity, 323.15 K [S/m] | viscosity, 293.15 K [mPa·s] | viscosity, 303.15 K [mPa·s] | viscosity, 313.15 K [mPa·s] | viscosity, 323.15 K [mPa·s]
x1 = 0.0989 | 0.002 | 0.0023 | 0.0028 | 0.0034 | 6.1 | 4.244 | 3.145 | 2.453
x1 = 0.1981 | – | 0.0077 | 0.0094 | – | – | 5.65 | 4.14 | –
x1 = 0.2776 | 0.0093 | – | 0.0144 | 0.0193 | 13.52 | – | 6.42 | 5
x1 = 0.3971 | 0.0202 | 0.0243 | 0.031 | 0.043 | 19.5 | 13.05 | 8.55 | 6.4
x1 = 0.5029 | 0.0321 | – | 0.0518 | 0.0698 | 39.8 | – | 16.92 | 12.64
x1 = 0.597 | 0.0411 | 0.051 | 0.0672 | 0.0919 | 53.9 | 33.04 | 22.38 | 16.15
x1 = 0.721 | 0.0589 | 0.0732 | 0.0977 | 0.134 | 64.3 | 36.5 | 24.89 | 17.98
x1 = 0.798 | 0.0885 | 0.111 | – | – | 90.8 | 49.7 | – | –
x1 = 0.89 | 0.0746 | – | – | 0.175 | 145.2 | – | – | 37.5
x1 = 1 | 0.0654 | 0.0831 | 0.112 | 0.158 | 296 | 169 | 103.2 | 74.6

Reference: a compilation of properties of binary mixtures (doi:10.1016/j.molliq.2020.114841)
